Drawing on patent publication US7754880B2, “Uracils having a herbicidal activity” (Isagro Ricerca S.r.l., priority 2002, dated 2010), this text covers melting point for twelve compounds.

In general, melting point refers to the temperature, or range, at which the solid turns liquid. In turn, `COC(=O)/C=C(\COc1cc(-n2c(=O)cc(C(F)(F)F)n(C)c2=O)c(Cl)cc1Cl)OC` [Compound No 3, methyl (2E)-4-{2,4-dichloro-5-[1,2,3,6-tetrahydro-3-methyl-2,6-dioxo-4-(trifluoromethyl)pyrimidin-1-yl]phenoxy}-3-methoxybut-2-enoate] displayed a melting point of 116 °C.
For `Cn1c(C(F)(F)F)cc(=O)n(-c2cc(OCc3nnn[nH]3)c(Cl)cc2F)c1=O` [Compound No 7, 3-[4-chloro-2-fluoro-5-(tetrazol-5-ylmethoxy)phenyl]-1-methyl-6-(trifluoromethyl)-2,4(1H,3H)-pyrimidinedione] the value was 82 °C.
For `CCn1nnc(COc2cc(-n3c(=O)cc(C(F)(F)F)n(C)c3=O)c(F)cc2Cl)n1` [Compound No 8, 3-{4-chloro-2-fluoro-5-[(2-ethyl-2H-tetrazol-5-yl)methoxy]phenyl}-1-methyl-6-(trifluoromethyl)-2,4(1H,3H)-pyrimidinedione] the value was 126 °C; for `CCn1nnnc1COc1cc(-n2c(=O)cc(C(F)(F)F)n(C)c2=O)c(F)cc1Cl` [Compound No 9, 3-{4-chloro-2-fluoro-5-[(1-ethyl-1H-tetrazol-5-yl)methoxy]phenyl}-1-methyl-6-(trifluoromethyl)-2,4(1H,3H)-pyrimidinedione], 60 °C.
As for `COC(=O)Cn1nnnc1COc1cc(-n2c(=O)cc(C(F)(F)F)n(C)c2=O)c(F)cc1Cl` [Compound No 10, methyl [5-({2-chloro-4-fluoro-5-[1,2,3,6-tetrahydro-3-methyl-2,6-dioxo-4-(trifluoromethyl)pyrimidin-1-yl]phenoxy}methyl)-1H-tetrazol-1-yl]acetate], the figure is 243 °C; as for `COC(=O)Cn1nnc(COc2cc(-n3c(=O)cc(C(F)(F)F)n(C)c3=O)c(F)cc2Cl)n1` [Compound No 11, methyl [5-({2-chloro-4-fluoro-5-[1,2,3,6-tetrahydro-3-methyl-2,6-dioxo-4-(trifluoromethyl)pyrimidin-1-yl]phenoxy}methyl)-2H-tetrazol-2-yl]acetate], 65 °C; as for `Cn1nnnc1-c1cc(-n2c(=O)cc(C(F)(F)F)n(C)c2=O)ccc1Cl` [Compound No 14, 3-[4-chloro-3-(1-methyl-1H-tetrazol-5-yl)phenyl]-1-methyl-6-(trifluoromethyl)-2,4(1H,3H)-pyrimidinedione], 185 °C.
Turning to `CCn1nnc(-c2cc(-n3c(=O)cc(C(F)(F)F)n(C)c3=O)ccc2Cl)n1` [Compound No 15, 3-[4-chloro-3-(2-ethyl-2H-tetrazol-5-yl)phenyl]-1-methyl-6-(trifluoromethyl)-2,4(1H,3H)-pyrimidinedione], the melting point was determined as 136 °C.
As for `CCn1nnnc1-c1cc(-n2c(=O)cc(C(F)(F)F)n(C)c2=O)ccc1Cl` [Compound No 16, 3-[4-chloro-3-(1-ethyl-1H-tetrazol-5-yl)phenyl]-1-methyl-6-(trifluoromethyl)-2,4(1H,3H)-pyrimidinedione], the figure is 202 °C.
For `COC(=O)Cn1nnc(-c2cc(-n3c(=O)cc(C(F)(F)F)n(C)c3=O)ccc2Cl)n1` [Compound No 17, methyl (5-{2-chloro-5-[1,2,3,6-tetrahydro-3-methyl-2,6-dioxo-4-(trifluoromethyl)pyrimidin-1-yl]phenyl}-2H-tetrazol-2-yl)acetate] the value was 172 °C; for `COC(=O)Cn1nnnc1-c1cc(-n2c(=O)cc(C(F)(F)F)n(C)c2=O)ccc1Cl` [Compound No 18, methyl (5-{2-chloro-5-[1,2,3,6-tetrahydro-3-methyl-2,6-dioxo-4-(trifluoromethyl)pyrimidin-1-yl]phenyl}-1H-tetrazol-1-yl)acetate], 130 °C; for `Cn1nnc(COc2cc(-n3c(=O)cc(C(F)(F)F)n(C)c3=O)c(F)cc2Cl)n1` [Compound No 42, 3-{4-chloro-2-fluoro-5-[(2-methyl-2H-tetrazol-5-yl)methoxy]phenyl}-1-methyl-6-(trifluoromethyl)-2,4(1H,3H)-pyrimidinedione], 167 °C.
